The source of these data is patent US11992473B2, “Compositions and methods for diagnosis and treatment of conditions related to the quality of aging and longevity” (Epitracker, Inc., priority 2018, dated 2024).

What all share (assay type): cell-based, human
Experiment [1] has as its system Peripheral blood mononuclear cells, B cells. Nature of the experiment: BioMAP Diversity PLUS BT system (T cell dependent B cell activation). Particulars: BT system. Here is the method:
(§1) This study examined activities of small molecules discovered in dolphin serum that had protective profiles against diseases of aging which can impact quality of life and longevity. These molecules were tested across 12 human primary cell-based systems as part of DiscoverX's BioMAP Diversity Plus program. These systems are designed to model complex human tissue and disease biology of the vasculature, skin, lung, and inflammatory tissues. Quantitative measurements of biomarker activities across this broad panel, along with comparative analysis of biological activities of known bioactive agents were used to predict and compare the efficacy and function of the four compounds. Compounds were tested at four concentrations (740 nm and 2.2, 6.7 and 20 μM).
(§2) BioMAP panels consist of human primary cell-based systems designed to model different aspects of the human body in an in vitro format. The 12 systems in the Diversity PLUS panel allow test agent characterization in an unbiased way across a broad set of systems modeling various human disease states. BioMAP systems are constructed with one or more primary cell types from healthy human donors, with stimuli (such as cytokines or growth factors) added to capture relevant signaling networks that naturally occur in human tissue or pathological conditions. Vascular biology is modeled in both a Th1 (3C system) and a Th2 (4H system) inflammatory environment, as well as in a Th1 inflammatory state specific to arterial smooth muscle cells (CASM3C system). Additional systems recapitulate aspects of the systemic immune response including monocyte-driven Th1 inflammation (LPS system) or T cell stimulation (SAg system), chronic Th1 inflammation driven by macrophage activation (lMphg system) and the T cell-dependent activation of B cells that occurs in germinal centers (BT system). The BE3C system (Th1) and the BF4T system (Th2) represent airway inflammation of the lung, while the MyoF system models myofibroblast-lung tissue remodeling. Lastly, skin biology is addressed in the KF3CT system modeling Th1 cutaneous inflammation and the HDF3CGF system modeling wound healing.
(§3) Each test agent generates a signature BioMAP profile that is created from the changes in protein biomarker readouts within individual system environments. Biomarker readouts (7-17 per system) are selected for therapeutic and biological relevance, are predictive for disease outcomes or specific drug effects and are validated using agents with known mechanism of action (MoA). Each readout is measured quantitatively by immune-based methods that detect protein (e.g., ELISA) or functional assays that measure proliferation and viability. BioMAP readouts are diverse and include cell surface receptors, cytokines, chemokines, matrix molecules and enzymes.
(§4) The Diversity PLUS panel allows test agent characterization in an unbiased way across a broad set of systems modeling various human disease states. These systems are designed to model complex human tissue and disease biology of the vasculature, skin, lung, and inflammatory tissues.
(§5) BioMAP systems are constructed with one or more primary cell types from healthy human donors, with stimuli (such as cytokines or growth factors) added to capture relevant signaling networks that naturally occur in human tissue or pathological conditions. Vascular biology is modeled in both a Th1 (3C system) and a Th2 (4H system) inflammatory environment, as well as in a Th1 inflammatory state specific to arterial smooth muscle cells (CASM3C system). Additional systems recapitulate aspects of the systemic immune response including monocyte-driven Th1 inflammation (LPS system) or T cell stimulation (SAg system), chronic Th1 inflammation driven by macrophage activation (lMphg system) and the T cell-dependent activation of B cells that occurs in germinal centers (BT system).

Experiment [2] deals with Bronchial epithelial cells, dermal fibroblasts. Nature of the experiment: BioMAP Diversity PLUS BF4T system (Th2 type lung inflammation). The method, then: as §1, §2
as §3, with “enzymes. In total, the Diversity PLUS panel contains 148 biomarker readouts that capture biological changes that occur within the physiological context of the particular BioMAP system. Specific BioMAP activities have been correlated to in vivo biology, and multiparameter BioMAP profiles have been used to distinguish compounds based on MoA and target selectivity across diverse physiological systems.” for “enzymes.”
(§6) The Diversity PLUS panel allows test agent characterization in an unbiased way across a broad set of systems modeling various human disease states. These systems are designed to model complex human tissue and disease biology of the vasculature, skin, lung, and inflammatory tissues. Quantitative measurements of 148 biomarker activities across this broad panel, along with comparative analysis of biological activities from known bioactive agents, were used to predict and compare the efficacy and function of each selected compound at four concentrations (740 nm and 2.2, 6.7 and 20 μM). […]

In experiment [3] the test system is Bronchial epithelial cells. Nature of the experiment: BioMAP Diversity PLUS BE3C system (Th1 type lung inflammation). Here is the method: as §1, §2
as §3, with “enzymes. In total, the Diversity PLUS panel contains 148 biomarker readouts that capture biological changes that occur within the physiological context of the particular BioMAP system. Specific BioMAP activities have been correlated to in vivo biology, and multiparameter BioMAP profiles have been used to distinguish compounds based on MoA and target selectivity across diverse physiological systems.” for “enzymes.”
as §6

A further experiment concerns Dermal fibroblasts. The experiment can be described thus: BioMAP Diversity PLUS HDF3CGF system (wound healing and matrix/tissue remodeling). Particulars: HDF3CGF system; 20.0 μM. Here is the method: as §1, §2, §3, §4, §5
The test system of a further experiment is Lung fibroblasts. Nature of the experiment: BioMAP Diversity PLUS MyoF system (myofibroblast differentiation and tissue remodeling). The method, then:
as §1, §2
as §3, with “enzymes. In total, the Diversity PLUS panel contains 148 biomarker readouts that capture biological changes that occur within the physiological context of the particular BioMAP system. Specific BioMAP activities have been correlated to in vivo biology, and multiparameter BioMAP profiles have been used to distinguish compounds based on MoA and target selectivity across diverse physiological systems.” for “enzymes.”
as §6

The test system of experiment [4] is Macrophages, venular endothelial cells. Nature of the experiment: BioMAP Diversity PLUS lMphg system (Th1 type chronic inflammation, macrophage activation). The conditions noted are these: /Mphg system. The method, then: as §1, §2
as §3, with “enzymes. In total, the Diversity PLUS panel contains 148 biomarker readouts that capture biological changes that occur within the physiological context of the particular BioMAP system. Specific BioMAP activities have been correlated to in vivo biology, and multiparameter BioMAP profiles have been used to distinguish compounds based on MoA and target selectivity across diverse physiological systems.” for “enzymes.”
as §6

Regarding `CCCCC/C=C\C/C=C\C/C=C\C/C=C\CCCC(=O)O[C@H](COC(=O)CCCCCCCCCCCCCCC)COP(=O)([O-])OCC[N+](C)(C)C` [1-palmitoyl-2-arachidonoyl-GPC], the “Significant log10 reduction compared to nontreated controls: Secreted interleukin 17F (IL-17F)” value in experiment [1] (2.2 μM) is on record as −0.12 log10; in experiment [1] (20.0 μM), −0.24 log10. In addition, the “Significant log10 reduction compared to nontreated controls: Secreted interleukin 2 (IL-2)” value in experiment [1] (20.0 μM) is recorded as −0.27 log10. Also, the “Significant log10 reduction compared to nontreated controls: Secreted tumor necrosis factor alpha (TNFα)” value in experiment [1] (20.0 μM) is on record as −0.16 log10. Also, the “Significant log10 reduction compared to nontreated controls: Eotaxin 3 (CCL26)” value in experiment [2] (2.2 μM) is listed as −0.11 log10; in experiment [2] (6.7 μM) it was −0.24 log10; in experiment [2] (20.0 μM), −0.58 log10. For the same compound, the “Significant log10 reduction compared to nontreated controls: Plasminogen activation inhibitor 1 (PAI-1)” value in experiment [2] (6.7 μM) is listed as −0.07 log10; in experiment [2] (20.0 μM) it was −0.19 log10; in experiment [3] (20.0 μM), −0.12 log10; with Dermal fibroblasts, −0.11 log10. Also, the “Significant log10 reduction compared to nontreated controls: Keratin 8/18” value in experiment [3] (6.7 μM) was −0.08 log10. Also, the “Significant log10 reduction compared to nontreated controls: Interleukin 8 (IL-8)/CXCL8” value in experiment [3] (20.0 μM) is recorded as −0.12 log10. The “Significant log10 reduction compared to nontreated controls: Matrix metalloproteinase 9 (MMP-9)” value in experiment [3] (20.0 μM) was −0.11 log10. Besides, the “Significant log10 reduction compared to nontreated controls: Alpha smooth muscle actin (αSMA)” value in the experiment on Lung fibroblasts (0.7 μM) was −0.07 log10; in the experiment on Lung fibroblasts (2.2 μM), −0.09 log10; in the experiment with Lung fibroblasts (6.7 μM) it was −0.10 log10; in the experiment on Lung fibroblasts (20.0 μM), −0.18 log10. In addition, the figures for the “Significant log10 reduction compared to nontreated controls: Monocyte chemoattractant protein 1 (MCP-1)” value in experiment [4] (2.2 μM), in experiment [4] (6.7 μM) and in experiment [4] (20.0 μM) were −0.12 log10, −0.13 log10 and −0.18 log10, respectively. In addition, the “Significant log10 reduction compared to nontreated controls: Secreted interleukin 10 (IL-10)” value in experiment [4] (6.7 μM) is given as −0.18 log10. For the same compound, in experiment [4] (20.0 μM), the “Significant log10 reduction compared to nontreated controls: CD69” value is −0.11 log10.
